Assay results from ChEMBL document CHEMBL1201862, “PubChem BioAssay data set” (2004).
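Assay format: 96-well plates, 48-hour exposure. At the GI50, growth is halved.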 Active and inactive are the calls of the source. Cut-off read from the data, not from the text of the source: active = GI50 up to about 1.1 µM and inactive = higher.

What was measured:
Assay in all cases: inhibition of tumour cell growth, NCI panel, 48 h
[1] = system: 786-0
[2] = system: A498
[3] = system: A549
[4] = system: ACHN
[5] = system: BT-549
[6] = system: CAKI-1
[7] = system: CCRF-CEM
[8] = system: COLO 205
[9] = system: DU-145
[10] = system: EKVX
[11] = system: HCC 2998
[12] = system: HCT-116
[13] = system: HCT-15
[14] = system: HOP-62
[15] = system: HOP-92
[16] = system: HT-29
[17] = system: Hs-578T
[18] = system: IGROV-1
[19] = system: K562
[20] = system: KM12
[21] = system: LOX IMVI
[22] = system: M14
[23] = system: MCF7
[24] = system: MDA-MB-231
[25] = system: MDA-MB-435
[26] = system: MDA-N
[27] = system: MOLT-4
[28] = system: Malme-3M
[29] = system: NCI-H226
[30] = system: NCI-H23
[31] = system: NCI-H460
[32] = system: NCI-H522
[33] = system: NCI/ADR-RES
[34] = system: OVCAR-3
[35] = system: OVCAR-4
[36] = system: OVCAR-5
[37] = system: OVCAR-8
[38] = system: PC-3
[39] = system: RPMI-8226
[40] = system: RXF 393
[41] = system: SF-268
[42] = system: SF-295
[43] = system: SF-539
[44] = system: SK-MEL-28
[45] = system: SK-MEL-2
[46] = system: SK-MEL-5
[47] = system: SK-OV-3
[48] = system: SN12C
[49] = system: SNB-19
[50] = system: SNB-75
[51] = system: SR
[52] = system: SW-620
[53] = system: T47D
[54] = system: TK-10
[55] = system: U-251
[56] = system: UACC-257
[57] = system: UACC-62
[58] = system: UO-31

Compound: O=C(O)c1nc(-c2ccccc2)[nH]c1C(=O)O
- GI50 [1]: 10.6 µM (inactive)
- GI50 [2]: 15.4 µM (inactive)
- GI50 [3]: 14 µM (inactive)
- GI50 [4]: 16.8 µM (inactive)
- GI50 [5]: 17.4 µM (inactive)
- GI50 [6]: 14.4 µM (inactive)
- GI50 [7]: 0.577 µM (active)
- GI50 [8]: 17 µM (inactive)
- GI50 [9]: 15 µM (inactive)
- GI50 [10]: 17.4 µM (inactive)
- GI50 [11]: 5.94 µM (inactive)
- GI50 [12]: 4.43 µM (inactive)
- GI50 [13]: 14.3 µM
- GI50 [14]: 16 µM (inactive)
- GI50 [15]: 16.3 µM (inactive)
- GI50 [16]: 7.03 µM (inactive)
- GI50 [17]: 24.8 µM (inactive)
- GI50 [18]: 11.7 µM (inactive)
- GI50 [19]: 3.72 µM (inactive)
- GI50 [20]: 4.65 µM (inactive)
- GI50 [21]: 3.01 µM (inactive)
- GI50 [22]: 10.9 µM (inactive)
- GI50 [23]: 2.32 µM (inactive)
- GI50 [24]: 5.62 µM (inactive)
- GI50 [25]: 8.87 µM (inactive)
- GI50 [26]: 11.8 µM (inactive)
- GI50 [27]: 1.04 µM (active)
- GI50 [28]: 15.3 µM (inactive)
- GI50 [29]: 14.8 µM (inactive)
- GI50 [30]: 13.9 µM (inactive)
- GI50 [31]: 15.4 µM (inactive)
- GI50 [32]: 13.1 µM (inactive)
- GI50 [33]: 27.7 µM (inactive)
- GI50 [34]: 11.8 µM (inactive)
- GI50 [35]: 16.8 µM (inactive)
- GI50 [36]: 17.2 µM (inactive)
- GI50 [37]: 14.1 µM (inactive)
- GI50 [38]: 5.32 µM (inactive)
- GI50 [39]: 1.84 µM (inactive)
- GI50 [40]: 13.5 µM (inactive)
- GI50 [41]: 16 µM (inactive)
- GI50 [42]: 16.7 µM (inactive)
- GI50 [43]: 7.8 µM (inactive)
- GI50 [44]: 16.6 µM (inactive)
- GI50 [45]: 7.76 µM (inactive)
- GI50 [46]: 15.1 µM (inactive)
- GI50 [47]: 18.4 µM (inactive)
- GI50 [48]: 13.6 µM (inactive)
- GI50 [49]: 12.5 µM (inactive)
- GI50 [50]: 19.4 µM (inactive)
- GI50 [51]: 0.0188 µM (active)
- GI50 [52]: 2.47 µM (inactive)
- GI50 [53]: 15.3 µM (inactive)
- GI50 [54]: 15.5 µM (inactive)
- GI50 [55]: 4.18 µM (inactive)
- GI50 [56]: 16.6 µM (inactive)
- GI50 [57]: 17.2 µM (inactive)
- GI50 [58]: 12.1 µM (inactive)
